From the RepoRT retention time repository (doi:10.1016/j.chroma.2019.01.023)

Key:
Conditions in all cases: stereoisomer not certain
[1] = HILIC, Merck SeQuant ZIC-pHILIC, 150 × 2.1 mm, 5 µm, 40 °C, 0.3 mL/min, estimated dead time 1.1 min; A: acetonitrile; B: water + 2.8 mM ammonium formate, pH 9; gradient (min/%B) 0/5 1/5 10/51 13/51 13.1/5 20/5
[2] = RP, Phenomenex Kinetex C18, 150 × 2.1 mm, 1.7 µm, 30 °C, 0.3 mL/min, estimated dead time 1.1 min; A: water + 0.1% formic acid, pH 3; B: acetonitrile + 0.1% formic acid, pH 3; gradient (min/%B) 0/2 14/100 17/100 17.1/2 25/2
[3] = as above; remark: listed apart in the source
[4] = HILIC, Waters ACQUITY UPLC BEH Amide, 150 × 2.1 mm, 1.7 µm, 40 °C, 0.5 mL/min, estimated dead time 0.66 min; A: 5% water + 95% acetonitrile; B: 70% water + 30% acetonitrile + 10 mM ammonium formate, pH 6.5; gradient (min/%B) 0/0 2/0 20/70 23/70 24/0 31/0

SMILES: O=C(O)CCCCCC(=O)O [6-CARBOXYHEXANOATE]
- LC retention time [1]: 6.74 min
- LC retention time [2]: 4.56 min
- LC retention time [3]: 4.73 min

SMILES: N[C@@H](Cc1ccc(O)c([N+](=O)[O-])c1)C(=O)O [3-NITRO-L-TYROSINE]
- LC retention time [1]: 7.37 min
- LC retention time [2]: 3.48 min
- LC retention time [3]: 3.56 min

SMILES: CC12CCC3c4ccc(O)cc4CCC3C1CCC2O (stereo not drawn) [ESTRADIOL-17ALPHA]
- LC retention time [3]: 9.34 min

SMILES: N[C@@H](Cc1cc(I)c(O)c(I)c1)C(=O)O [3,5-DIIODO-L-TYROSINE]
- LC retention time [1]: 7.41 min
- LC retention time [2]: 4.8 min
- LC retention time [3]: 4.95 min

SMILES: CC(CCC(=O)NCC(=O)O)C1CCC2C3C(O)CC4CC(O)CCC4(C)C3CCC12C (centres undefined) [GLYCOCHENODEOXYCHOLATE]
- LC retention time [1]: 4.94 min
- LC retention time [2]: 9.21 min
- LC retention time [3]: 9.28 min

SMILES: CC(CCC(=O)O)C1CCC2C3CCC4CC(O)CCC4(C)C3CC(O)C12C (centres undefined) [DEOXYCHOLATE]
- LC retention time [3]: 10.8 min
- LC retention time [4]: 1.01 min

SMILES: Nc1nc2ncc(CNc3ccc(C(=O)NC(CCC(=O)O)C(=O)O)cc3)nc2c(=O)[nH]1 (centres undefined) [FOLATE]
- LC retention time [1]: 9.42 min
- LC retention time [2]: 11.3 min
- LC retention time [3]: 4.35 min

SMILES: O=C1CCC(C(=O)O)N1 (centres undefined) [PYROGLUTAMATE]
- LC retention time [3]: 1.71 min

SMILES: COc1cc(C(O)CO)ccc1O (centres undefined) [4-HYDROXY-3-METHOXYPHENYLGLYCOL]
- LC retention time [3]: 3.21 min
- LC retention time [4]: 1.01 min

SMILES: CC(CCC(=O)NCC(=O)O)C1CCC2C3C(O)CC4CC(O)CCC4(C)C3CC(O)C12C (centres undefined) [GLYCOCHOLATE]
- LC retention time [1]: 5.5 min
- LC retention time [3]: 8.13 min
- LC retention time [4]: 6.3 min

SMILES: O=CCc1ccccc1 [PHENYLACETALDEHYDE]
- LC retention time [3]: 9.47 min

SMILES: CC(=O)NC(CCC(=O)O)C(=O)O (centres undefined) [N-ACETYLGLUTAMATE]
- LC retention time [1]: 8.75 min
- LC retention time [2]: 1.78 min
- LC retention time [3]: 1.9 min

SMILES: NC(Cc1cc(I)c(Oc2cc(I)c(O)c(I)c2)c(I)c1)C(=O)O (centres undefined) [THYROXINE]
- LC retention time [1]: 6.1 min
- LC retention time [2]: 8.07 min
- LC retention time [3]: 8.06 min

SMILES: NC(Cc1c[nH]c2ccc(O)cc12)C(=O)O (centres undefined) [5-HYDROXYTRYPTOPHAN]
- LC retention time [1]: 8.74 min
- LC retention time [2]: 2.99 min
- LC retention time [3]: 3.05 min

SMILES: NCCc1c[nH]c2ccccc12 [TRYPTAMINE]
- LC retention time [3]: 5.12 min
- LC retention time [4]: 7.11 min

SMILES: NC(Cc1cc(I)c(Oc2ccc(O)c(I)c2)c(I)c1)C(=O)O (centres undefined) [LIOTHYRONINE]
- LC retention time [1]: 6.19 min
- LC retention time [2]: 7.41 min
- LC retention time [3]: 7.42 min

SMILES: CCCCCCSCC(NC(=O)CCC(N)C(=O)O)C(=O)NCC(=O)O (centres undefined) [S-HEXYL-GLUTATHIONE]
- LC retention time [2]: 6.22 min
- LC retention time [3]: 6.27 min

SMILES: CCOC(=O)Cc1c[nH]c2ccccc12 [ETHYL 3-INDOLEACETATE]
- LC retention time [3]: 9.17 min

SMILES: CCCCCC=CCC=CCC=CCCCCC(=O)[O-] [GAMMA-LINOLENATE]
- LC retention time [2]: 11.8 min
- LC retention time [3]: 11.8 min

SMILES: CC(=O)OCC(=O)C1CCC2C3CCC4=CC(=O)CCC4(C)C3CCC12C (centres undefined) [DEOXYCORTICOSTERONE ACETATE]
- LC retention time [3]: 11 min

SMILES: CCCCCCCCCCCCCC(=O)OCC(O)CO (centres undefined) [GLYCEROL-MYRISTATE]
- LC retention time [3]: 13.3 min

SMILES: O=C(O)c1ccc2ccccc2n1 [2-QUINOLINECARBOXYLATE]
- LC retention time [1]: 5.63 min
- LC retention time [3]: 4.39 min
- LC retention time [4]: 8.23 min

SMILES: C[Se]CCC(N)C(=O)O (centres undefined) [SELENOMETHIONINE]
- LC retention time [1]: 6.81 min
- LC retention time [3]: 1.76 min
- LC retention time [4]: 8.56 min

SMILES: CC(C)=CCCC(C)=CCCC(C)=CCCC(C)=CCCC(C)=CCCC(C)=CCCC(C)=CCC1=C(C)C(=O)c2ccccc2C1=O [MENAQUINONE]
- LC retention time [3]: 11.9 min

SMILES: O=C(O)c1ccc([O-])cc1 [4-HYDROXYBENZOATE]
- LC retention time [2]: 4.51 min
- LC retention time [3]: 4.66 min

SMILES: O=C(O)C=Cc1cnc[nH]1 [UROCANATE]
- LC retention time [1]: 7.08 min
- LC retention time [2]: 1.43 min
- LC retention time [4]: 4.08 min

SMILES: O=C(O)Cc1cc(O)ccc1O [HOMOGENTISATE]
- LC retention time [1]: 6.88 min
- LC retention time [2]: 3.31 min
- LC retention time [4]: 1.27 min

SMILES: CC(=O)NC(CC(=O)O)C(=O)O (centres undefined) [N-ACETYLASPARTATE]
- LC retention time [1]: 8.84 min
- LC retention time [2]: 1.45 min
- LC retention time [4]: 3.48 min

SMILES: O=c1cc[nH]c(=O)[nH]1 [URACIL]
- LC retention time [1]: 4.25 min
- LC retention time [2]: 1.41 min
- LC retention time [4]: 1.83 min

SMILES: O=C(O)CC(O)C(=O)O (centres undefined) [MALATE]
- LC retention time [1]: 9.39 min
- LC retention time [3]: 2.8 min

SMILES: CCCCCCCCCCCCCCCC(=O)O [PALMITATE]
- LC retention time [3]: 11.8 min

SMILES: NC(=O)C1CCCN1C(=O)C(Cc1cnc[nH]1)NC(=O)C1CCC(=O)N1 (centres undefined) [THYROTROPIN RELEASING HORMONE]
- LC retention time [1]: 6.53 min
- LC retention time [2]: 2.14 min
- LC retention time [4]: 8.34 min

SMILES: Cn1cnc2c1c(=O)[nH]c(=O)n2C [THEOBROMINE]
- LC retention time [1]: 1.93 min
- LC retention time [3]: 3.68 min
- LC retention time [4]: 1.32 min

SMILES: Nc1ccc(C(=O)[O-])cc1 [4-AMINOBENZOATE]
- LC retention time [1]: 4.05 min
- LC retention time [3]: 3.83 min
- LC retention time [4]: 1.11 min

SMILES: Nc1ccccc1O [2-AMINOPHENOL]
- LC retention time [1]: 7.38 min
- LC retention time [2]: 1.52 min
- LC retention time [4]: 0.87 min

SMILES: O=CCc1c[nH]c2ccccc12 [INDOLEACETALDEHYDE]
- LC retention time [3]: 4.83 min
- LC retention time [4]: 1.02 min

SMILES: NC(=O)NCCC(=O)O [UREIDOPROPIONATE]
- LC retention time [1]: 7.98 min
- LC retention time [2]: 1.4 min
- LC retention time [4]: 5.27 min

SMILES: O=C([O-])CCc1ccccc1O [3-(2-HYDROXYPHENYL)PROPANOATE]
- LC retention time [1]: 2.12 min
- LC retention time [2]: 6.02 min
- LC retention time [4]: 1.02 min

SMILES: Nc1ncnc2c1ncn2C1OC(CO)C(O)C1O (centres undefined) [ADENOSINE]
- LC retention time [1]: 5.92 min
- LC retention time [2]: 2.34 min
- LC retention time [4]: 3.85 min

SMILES: O=C([O-])c1c[nH]c(=O)[nH]c1=O [URACIL 5-CARBOXYLATE]
- LC retention time [2]: 1.8 min
- LC retention time [3]: 1.93 min

SMILES: CCCCCCCCCCCCCC(=O)O [MYRISTATE]
- LC retention time [3]: 11.6 min

SMILES: CSCCC(N)C(=O)O (centres undefined) [METHIONINE]
- LC retention time [1]: 7.53 min
- LC retention time [2]: 1.43 min
- LC retention time [4]: 8.53 min

SMILES: Cc1cc2nc3c(=O)[nH]c(=O)nc-3n(CC(O)C(O)C(O)COP(=O)(O)OP(=O)(O)OCC3OC(n4cnc5c(N)ncnc54)C(O)C3O)c2cc1C (centres undefined) [FAD]
- LC retention time [1]: 8.07 min
- LC retention time [3]: 4.21 min

SMILES: Cn1c(=O)c2c(ncn2C)n(C)c1=O [CAFFEINE]
- LC retention time [3]: 4.68 min
- LC retention time [4]: 1.03 min

SMILES: O=C([O-])Cc1c[nH]c2ccccc12 [INDOLE-3-ACETATE]
- LC retention time [3]: 6.54 min

SMILES: COC(=O)Cc1c[nH]c2ccccc12 [INDOLE-3-METHYL ACETATE]
- LC retention time [3]: 8.33 min

SMILES: Cc1cc2nc[nH]c2cc1C [5,6 DIMETHYLBENZIMIDAZOLE]
- LC retention time [3]: 4.83 min
- LC retention time [4]: 0.92 min

SMILES: CC(C)=CCCC(C)C1CCC2C3CC=C4CC(O)CCC4(C)C3CCC12C (centres undefined) [DESMOSTEROL]
- LC retention time [3]: 15.4 min

SMILES: NC(=O)CCCCC1CCSS1 (centres undefined) [LIPOAMIDE]
- LC retention time [3]: 6.87 min
- LC retention time [4]: 0.88 min

SMILES: CC(C=CC1=C(C)CCCC1(C)C)=CC=CC(C)=CC(=O)[O-] [RETINOATE]
- LC retention time [2]: 8.2 min
- LC retention time [3]: 11.2 min

SMILES: CCCCC(CC)COC(=O)c1ccccc1C(=O)OCC(CC)CCCC (centres undefined) [BIS(2-ETHYLHEXYL)PHTHALATE]
- LC retention time [2]: 9.02 min
- LC retention time [3]: 9.11 min
